The target in the assay is T1, N-terminally GST-tagged human full length recombinant Mps-1 kinase (Homo sapiens, UniProt P33981).
T1 construct: N-terminally GST-tagged human full length recombinant Mps-1 kinase; purchased Invitrogen, Karslruhe, Germany PV4071
T1 sequence (P33981 1-857): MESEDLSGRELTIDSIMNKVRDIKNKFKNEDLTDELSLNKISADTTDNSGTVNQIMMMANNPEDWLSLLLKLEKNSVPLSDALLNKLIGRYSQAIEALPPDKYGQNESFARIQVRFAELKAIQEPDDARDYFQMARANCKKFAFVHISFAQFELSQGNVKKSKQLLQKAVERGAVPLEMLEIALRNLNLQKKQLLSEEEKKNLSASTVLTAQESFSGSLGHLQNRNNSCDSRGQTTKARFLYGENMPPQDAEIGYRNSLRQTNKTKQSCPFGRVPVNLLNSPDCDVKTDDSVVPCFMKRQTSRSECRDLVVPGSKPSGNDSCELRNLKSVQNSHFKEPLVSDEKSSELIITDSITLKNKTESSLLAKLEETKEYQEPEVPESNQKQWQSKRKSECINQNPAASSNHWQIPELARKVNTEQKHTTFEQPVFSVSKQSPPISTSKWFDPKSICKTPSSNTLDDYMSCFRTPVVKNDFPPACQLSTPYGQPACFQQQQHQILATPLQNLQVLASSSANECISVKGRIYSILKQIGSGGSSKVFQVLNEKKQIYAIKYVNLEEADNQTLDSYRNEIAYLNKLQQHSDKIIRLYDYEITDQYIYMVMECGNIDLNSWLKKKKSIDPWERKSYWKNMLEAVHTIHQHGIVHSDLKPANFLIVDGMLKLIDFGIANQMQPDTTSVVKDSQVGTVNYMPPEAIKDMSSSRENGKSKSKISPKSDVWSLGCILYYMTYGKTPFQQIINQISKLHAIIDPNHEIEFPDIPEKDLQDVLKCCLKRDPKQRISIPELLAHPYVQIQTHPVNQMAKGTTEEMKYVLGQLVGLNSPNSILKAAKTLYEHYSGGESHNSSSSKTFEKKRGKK
The assay is described as follows: Mps-1 kinase assay (TR-FRET). Format: biochemical. Particulars: Mps1 IC50 [nM], 10 μM ATP, 1 μM peptide substrate, 60 min at 22° C. The method in brief:
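Inhibition of Mps-1 (N-terminal GST fusion, full length) toward a biotinylated peptide is read as Eu-to-XLent TR-FRET. Enzyme level, around 1 nM final, follows lot activity.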
For orientation: TR-FRET usually uses a lanthanide donor and a delayed reading to cut background.
In general, IC50 refers to the concentration needed to halve the response being measured. In the case of `Cc1cc(-c2cnc3c(NCCC(F)(F)F)cc(-c4ccncc4)nn23)ccc1C(=O)NC1CC1` [Example 228, N-cyclopropyl-2-methyl-4-{6-(pyridin-4-yl)-8-[(3,3,3-trifluoropropyl)amino]imidazo[1,2-b]pyridazin-3-yl}benzamide], the IC50 was 0.6 nM.

Turning to `Cc1cc(-c2cnc3c(NCC(C)(C)O)cc(-c4ccncc4)nn23)ccc1C(=O)NC1CC1` [Example 230, N-cyclopropyl-4-{8-[(2-hydroxy-2-methylpropyl)amino]-6-(pyridin-4-yl)imidazo[1,2-b]pyridazin-3-yl}-2-methylbenzamide], the IC50 came to 2.7 nM.

In the case of `CSc1cc(NCCS(=O)(=O)N2CCOCC2)c2ncc(-c3ccc(C(=O)NC4CC4)c(C)c3)n2n1` [Example 231, N-cyclopropyl-2-methyl-4-[6-(methylsulfanyl)-8-{[2-(morpholin-4-ylsulfonyl)ethyl]amino}imidazo[1,2-b]pyridazin-3-yl]benzamide], the IC50 amounted to 14.3 nM.

On to `Cc1cc(-c2cnc3c(NCC(C)(C)O)cc(-c4ccc(F)cc4C)nn23)ccc1C(=O)NC1CC1` [Example 232, N-cyclopropyl-4-{6-(4-fluoro-2-methylphenyl)-8-[(2-hydroxy-2-methylpropyl)amino]imidazo[1,2-b]pyridazin-3-yl}-2-methylbenzamide], for which the IC50 turned out to be 1 nM.

As for `Cc1cc(-c2cnc3c(NCC(C)(C)O)cc(-c4ccccc4F)nn23)ccc1C(=O)NC1CC1` [Example 233, N-cyclopropyl-4-{6-(2-fluorophenyl)-8-[(2-hydroxy-2-methylpropyl)amino]imidazo[1,2-b]pyridazin-3-yl}-2-methylbenzamide], the IC50 was determined as 1.7 nM.

`Cc1cc(-c2cnc3c(NCC(C)(C)O)cc(-c4cncc(C#N)c4)nn23)ccc1C(=O)NC1CC1` [Example 234, 4-{6-(5-cyanopyridin-3-yl)-8-[(2-hydroxy-2-methylpropyl)amino]imidazo[1,2-b]pyridazin-3-yl}-N-cyclopropyl-2-methylbenzamide]: the IC50 is 6.1 nM.

On to `Cc1cc(-c2cnc3c(NCC(C)(C)O)cc(-c4cc(C(F)(F)F)nn4C)nn23)ccc1C(=O)NC1CC1` [Example 235, N-cyclopropyl-4-{8-[(2-hydroxy-2-methylpropyl)amino]-6-[1-methyl-3-(trifluoromethyl)-1H-pyrazol-5-yl]imidazo[1,2-b]pyridazin-3-yl}-2-methylbenzamide], for which the half-maximal inhibitory concentration (IC50) came out at 6.2 nM.

Take `CSc1cc(NCc2ccnn2C)c2ncc(-c3ccc(C(=O)NC4CC4)c(C)c3)n2n1` [Example 237, N-cyclopropyl-2-methyl-4-[8-{[(1-methyl-1H-pyrazol-5-yl)methyl]amino}-6-(methylsulfanyl)imidazo[1,2-b]pyridazin-3-yl]benzamide]: the IC50 stood at 5.6 nM.

Take `Cc1cc(-c2cnc3c(NCCC(F)(F)F)cc(Sc4cccc(O)c4)nn23)ccc1C(=O)NC1CC1` [Example 238, N-cyclopropyl-4-{6-[(3-hydroxyphenyl)sulfanyl]-8-[(3,3,3-trifluoropropyl)amino]imidazo[1,2-b]pyridazin-3-yl}-2-methylbenzamide]: the IC50 is less than 0.1 nM.

Regarding `Cc1cc(-c2cnc3c(NCC(C)(C)O)cc(SCCN4CCOCC4)nn23)ccc1C(=O)NC1CC1` [Example 239, N-cyclopropyl-4-(8-[(2-hydroxy-2-methylpropyl)amino]-6-{[2-(morpholin-4-yl)ethyl]sulfanyl}imidazo[1,2-b]pyridazin-3-yl)-2-methylbenzamide], the IC50 worked out at 25.5 nM.

Take `Cc1cc(-c2cnc3c(NCC(C)(C)O)cc(O/C=C(/F)C(F)(F)CO)nn23)ccc1C(=O)NC1CC1` [Example 241B, N-cyclopropyl-4-(8-[(2-hydroxy-2-methylpropyl)amino]-6-{[(1E)-2,3,3-trifluoro-4-hydroxybut-1-en-1-yl]oxy}imidazo[1,2-b]pyridazin-3-yl)-2-methylbenzamide]: the half-inhibitory concentration (IC50) worked out at 3.4 nM.

Take `Cc1cc(-c2cnc3c(NCC(C)(C)O)cc(Sc4ccc(C(F)(F)F)cc4)nn23)ccc1C(=O)NC1CC1` [Example 242, N-cyclopropyl-4-(8-[(2-hydroxy-2-methylpropyl)amino]-6-{[4-(trifluoromethyl)phenyl]sulfanyl}imidazo[1,2-b]pyridazin-3-yl)-2-methylbenzamide]: the IC50 stood at 3.7 nM.

Consider `CC(C)(O)CNc1cc(Oc2ccccc2)nn2c(-c3ccc(C(=S)NC4CC4)cc3)cnc12` [Example 243, N-cyclopropyl-4-{8-[(2-hydroxy-2-methylpropyl)amino]-6-phenoxyimidazo[1,2-b]pyridazin-3-yl}benzenecarbothioamide], for which the IC50 was 0.9 nM.

As for `CC(C)(O)CNc1cc(Oc2cccc(F)c2)nn2c(-c3ccc(C(=S)NC4CC4)cc3)cnc12` [Example 244, N-cyclopropyl-4-{6-(3-fluorophenoxy)-8-[(2-hydroxy-2-methylpropyl)amino]imidazo[1,2-b]pyridazin-3-yl}benzenecarbothioamide], the IC50 was 0.3 nM.

As for `CC(C)(O)CNc1cc(Sc2ccccc2)nn2c(-c3ccc(C(=S)NC4CC4)cc3)cnc12` [Example 245, N-cyclopropyl-4-{8-[(2-hydroxy-2-methylpropyl)amino]-6-(phenylsulfanyl)imidazo[1,2-b]pyridazin-3-yl}benzenecarbothioamide], the 50% inhibitory concentration (IC50) came out at 0.7 nM.

For `CC(C)(O)CNc1cc(Sc2cccc(F)c2)nn2c(-c3ccc(C(=S)NC4CC4)cc3)cnc12` [Example 246, N-cyclopropyl-4-{6-[(3-fluorophenyl)sulfanyl]-8-[(2-hydroxy-2-methylpropyl)amino]imidazo[1,2-b]pyridazin-3-yl}benzenecarbothioamide], the IC50 was 0.6 nM.

On to `Cc1cc(-c2cnc3c(NCCC(F)(F)F)cc(Sc4ccc(C(F)(F)F)cc4)nn23)ccc1C(=O)NC1CC1` [Example 247, N-cyclopropyl-2-methyl-4-(6-{[4-(trifluoromethyl)phenyl]sulfanyl}-8-[(3,3,3-trifluoropropyl)amino]imidazo[1,2-b]pyridazin-3-yl)benzamide], for which the IC50 amounted to 1.7 nM.

In the case of `Cc1cc(-c2cnc3c(NCC(C)(C)O)cc(Sc4cc(F)ccc4F)nn23)ccc1C(=O)NC1CC1` [Example 248, N-cyclopropyl-4-{6-[(2,5-difluorophenyl)sulfanyl]-8-[(2-hydroxy-2-methylpropyl)amino]imidazo[1,2-b]pyridazin-3-yl}-2-methylbenzamide], the IC50 worked out at 0.5 nM.

With `Cc1cc(-c2cnc3c(NCCC(F)(F)F)cc(Sc4ccc(F)c(F)c4)nn23)ccc1C(=O)NC1CC1` [Example 249, N-cyclopropyl-4-{6-[(3,4-difluorophenyl)sulfanyl]-8-[(3,3,3-trifluoropropyl)amino]imidazo[1,2-b]pyridazin-3-yl}-2-methylbenzamide], the IC50 amounted to 0.2 nM.

In the case of `Cc1cc(-c2cnc3c(NCCC(F)(F)F)cc(Sc4ccc(F)cc4)nn23)ccc1C(=O)NC1CC1` [Example 250, N-cyclopropyl-4-{6-[(4-fluorophenyl)sulfanyl]-8-[(3,3,3-trifluoropropyl)amino]imidazo[1,2-b]pyridazin-3-yl}-2-methylbenzamide], the IC50 was 0.3 nM.

In the case of `Cc1cc(-c2cnc3c(NCCC(F)(F)F)cc(Sc4cc(F)cc(F)c4)nn23)ccc1C(=O)NC1CC1` [Example 251, N-cyclopropyl-4-{6-[(3,5-difluorophenyl)sulfanyl]-8-[(3,3,3-trifluoropropyl)amino]imidazo[1,2-b]pyridazin-3-yl}-2-methylbenzamide], the IC50 turned out to be 0.2 nM.

As for `Cc1cc(-c2cnc3c(NCCC(F)(F)F)cc(Sc4cccc(F)c4F)nn23)ccc1C(=O)NC1CC1` [Example 252, N-cyclopropyl-4-{6-[(2,3-difluorophenyl)sulfanyl]-8-[(3,3,3-trifluoropropyl)amino]imidazo[1,2-b]pyridazin-3-yl}-2-methylbenzamide], the IC50 is 0.2 nM.

Consider `Cc1cc(-c2cnc3c(NCC(C)(C)O)cc(Oc4ccc(F)cc4)nn23)ccc1C(=O)NC1CC1` [Example 253, N-cyclopropyl-4-{6-(4-fluorophenoxy)-8-[(2-hydroxy-2-methylpropyl)amino]imidazo[1,2-b]pyridazin-3-yl}-2-methylbenzamide], for which the IC50 was determined as 0.3 nM.

In the case of `Cc1cc(-c2cnc3c(NCC(C)(C)O)cc(Oc4ccc(F)c(F)c4)nn23)ccc1C(=O)NC1CC1` [Example 254, N-cyclopropyl-4-{6-(3,4-difluorophenoxy)-8-[(2-hydroxy-2-methylpropyl)amino]imidazo[1,2-b]pyridazin-3-yl}-2-methylbenzamide], the IC50 came to 0.1 nM.

For the origin of these results see patent US9255100B2 (BAYER INTELLECTUAL PROPERTY GMBH, priority 2010, dated 2016).
